Results as given in patent US8329726B2, “Inhibitors of VEGF receptor and HGF receptor signaling” (MethylGene Inc., priority 2005, dated 2012).

Assays:
[1] = target: T1, recombinant human c-Met/HGF receptor (Homo sapiens, UniProt P08581); assay: In vitro receptor tyrosine kinase assay (DELFIA), c-Met/HGF receptor; type: biochemical; conditions: read-out: CMET IC50
T1 construct: His tag (pBlueBacHis2A vector); made in house; host or cells: Hi-5 cells (Trichoplusia ni), baculovirus
Protocol: Cell pellets were frozen at −80° C. until purification was performed.
(§1) The coated plates were washed and stored at 4° C. […] After incubation, the kinase reactions were quenched with EDTA and the plates were washed.

VEGF receptor KDR = target: T2, VEGF receptor KDR (Homo sapiens, UniProt P35968); assay: In vitro receptor tyrosine kinase assay (DELFIA), VEGF receptor KDR; type: biochemical; conditions: read-out: VEGFR IC50
T2 construct: made in house; host or cells: Sf9 cells (Spodoptera frugiperda), baculovirus
Protocol: In the case of VEGF receptor KDR a 1.6-kb cDNA corresponding to the catalytic domain of VEGFR2 or KDR (Genbank accession number AF035121 amino acid 806 to 1356) was cloned into the Pst I site of the pDEST20 Gateway vector (Invitrogen) for the production of a GST-tagged version of that enzyme.
The GST-VEGFR2806-1356 protein was expressed in […] (Spodoptera frugiperda) upon infection with recombinant baculovirus construct. […] Cell pellets were frozen at −80° C. until purification was performed.
The supernatant (cell extract) was used as starting material for purification of GST-VEGFR2806-1356.
The supernatant was loaded onto a GST-agarose column (Sigma) equilibrated with PBS pH 7.3. Following a four column volume (CV) wash with PBS pH 7.3+1% Triton X-100 and 4 CV wash with buffer B (50 mM Tris pH 8.0, 20% glycerol and 100 mM NaCl), bound proteins were step eluted with 5 CV of buffer B supplemented with 5 mM DTT and 15 mM glutathion. GST-VEGFR2806-1356 enriched fractions from this chromatography step were pooled based on U.V. trace i.e. fractions with high O.D.280. Final GST-VEGFR2806-1356 protein preparations concentrations were about 0.7 mg/ml with purity approximating 70%.
as §1

A549 = A549 wound healing inhibition (HGF dependent migration); type: cell-based; conditions: Homo sapiens, A549 cells, read-out: A549 WOUND HEALING INHIB IC50
Description: (§2) HGF has well known activity in terms of inducing scattering and migration (wound healing) (Wells et al., Cell Motil Cytoskeleton. 2005 November 62(3):180-94; Miura et al., Urology 2001 December 58(6):1064-9; Nishimura et al., Int J Urol. 1998 May 5(3):276-81; Wang et al., Mol Cancer Ther. 2003 November; 2(11):1085-92; and Christensen et al., Cancer Res. 2003 Nov. 1; 63(21):7345-55).

DU145 = DU145 scattering inhibition (HGF dependent scattering); type: cell-based; conditions: Homo sapiens, DU-145; HGF dependent scattering, DU145 cells; read-out: DU145 SCATTERING INHIB IC50
Description: as §2

T2 sequence (P35968 806-1356): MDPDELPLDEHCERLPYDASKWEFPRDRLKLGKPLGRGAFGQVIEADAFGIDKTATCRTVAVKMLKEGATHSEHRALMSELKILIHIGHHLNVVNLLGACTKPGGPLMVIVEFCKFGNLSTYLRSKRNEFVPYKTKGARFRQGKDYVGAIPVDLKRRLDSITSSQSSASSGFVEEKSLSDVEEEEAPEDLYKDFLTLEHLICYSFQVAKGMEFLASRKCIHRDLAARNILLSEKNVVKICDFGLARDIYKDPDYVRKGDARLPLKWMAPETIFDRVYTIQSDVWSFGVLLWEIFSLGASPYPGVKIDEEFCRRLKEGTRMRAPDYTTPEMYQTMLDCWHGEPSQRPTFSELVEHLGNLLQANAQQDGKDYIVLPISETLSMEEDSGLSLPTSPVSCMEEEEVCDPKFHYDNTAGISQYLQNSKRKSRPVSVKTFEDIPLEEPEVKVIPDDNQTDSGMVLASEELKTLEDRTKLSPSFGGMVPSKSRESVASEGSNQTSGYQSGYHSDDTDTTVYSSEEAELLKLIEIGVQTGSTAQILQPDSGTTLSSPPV
T1 sequence (P08581 1078-1337): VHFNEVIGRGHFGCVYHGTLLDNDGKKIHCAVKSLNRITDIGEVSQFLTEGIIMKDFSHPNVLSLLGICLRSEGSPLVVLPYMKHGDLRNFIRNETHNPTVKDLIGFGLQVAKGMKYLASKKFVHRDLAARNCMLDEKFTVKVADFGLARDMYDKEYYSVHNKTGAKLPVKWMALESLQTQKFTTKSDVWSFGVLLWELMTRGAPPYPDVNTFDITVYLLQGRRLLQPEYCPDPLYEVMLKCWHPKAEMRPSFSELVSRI

| IC50 [1] [nM] | IC50 (VEGF receptor KDR) [nM] | IC50 (A549) [nM] | IC50 (DU145) [nM] | Compound |
| --- | --- | --- | --- | --- |
| < 50 | < 50 | < 1000 | < 1000 | CC(=O)N1CC=C(c2cc3nccc(Oc4ccc(NC(=O)N5CCN(c6ccc(F)cc6)C5=O)cc4F)c3s2)CC1 |
| < 50 | < 50 | < 1000 | < 1000 | CN(C)CCn1cnc(-c2cc3nccc(Oc4ccc(NC(=O)N5CCN(c6ccccc6)C5=O)cc4F)c3s2)c1 |
| > 500 | > 500 | > 10000 | > 10000 | COc1ccccc1NC(=O)CC(=O)Nc1ccc(Oc2ccnc3cc(-c4cnc(N5CCOCC5)nc4)sc23)c(F)c1 |
| < 50 | < 50 | 1000 to 5000 | 1000 to 5000 | CN1CCN(C(=O)CC(=O)Nc2ccc(Oc3ccnc4cc(-c5cn(C)cn5)sc34)c(F)c2)c2ccccc21 |
| < 50 | < 50 | < 1000 | < 1000 | CCCn1cnc(-c2cc3nccc(Oc4ccc(NC(=O)CC(=O)Nc5ccc(F)cc5)cc4F)c3s2)c1 |
| 50 to 250 | < 50 | < 1000 | < 1000 | CCn1cc(-c2cc3nccc(Oc4ccc(NC(=O)CC(=O)Nc5ccccc5OC)cc4F)c3s2)nc1C |
| 50 to 250 | < 50 | < 1000 | < 1000 | CN(C(=O)CC(=O)Nc1ccc(Oc2ccnc3cc(-c4cn(C)cn4)sc23)c(F)c1)c1ccccc1 |

The next lines start with the compound.

| Compound | IC50 [1] [nM] | IC50 (VEGF receptor KDR) [nM] | IC50 (A549) [nM] | IC50 (DU145) [nM] |
| --- | --- | --- | --- | --- |
| CCn1cnc(-c2cc3nccc(Oc4ccc(NC(=O)N5CCN(c6ccccc6F)C5=O)cc4F)c3s2)c1 | < 50 | < 50 | < 1000 | < 1000 |
| CCCn1cnc(-c2cc3nccc(Oc4ccc(NC(=O)CC(=O)Nc5cccc(F)c5)cc4F)c3s2)c1 | 50 to 250 | < 50 | 1000 to 5000 | < 1000 |
| Cn1cnc(-c2cc3nccc(Oc4ccc(NC(=O)CC(=O)Nc5ccccc5)cc4F)c3s2)c1 [drawing 287] | < 50 | < 50 | < 1000 | < 1000 |
| CN(C)CCn1cnc(-c2cc3nccc(Oc4ccc(NC(=O)N5CCN(c6ccc(F)cc6)C5=O)cc4F)c3s2)c1 | < 50 | < 50 | < 1000 | < 1000 |
| CCn1cnc(-c2cc3nccc(Oc4ccc(NC(=O)C5(C(=O)Nc6ccccc6F)CC5)cc4F)c3s2)c1 | < 50 | < 50 | < 1000 | < 1000 |
| O=C(Nc1ccc(Oc2ccnc3cc(-c4cn(CCCN5CCCC5)cn4)sc23)c(F)c1)C1(C(=O)Nc2ccccc2F)CC1 | < 50 | < 50 | < 1000 | < 1000 |
| COc1ccccc1NC(=O)CC(=O)Nc1ccc(Oc2ccnc3cc(C(=O)N4CC(O)C4)sc23)c(F)c1 | 50 to 250 | < 50 | 1000 to 5000 | 1000 to 5000 |
| COc1ccccc1NC(=O)CC(=O)Nc1ccc(Oc2ccnc3cc(-c4ccc(CN5CCCC5)cc4)sc23)c(F)c1 [drawing 295] | 50 to 250 | < 50 | 1000 to 5000 | < 1000 |
| CC(C)n1cnc(-c2cc3nccc(Oc4ccc(NC(=O)C5CCN(c6ccccc6)C5=O)cc4F)c3s2)c1 (stereo not drawn) | < 50 | < 50 | < 1000 | < 1000 |
| COc1ccccc1NC(=O)CC(=O)Nc1ccc(Oc2ccnc3cc(-c4ccc(OCCCN(C)C)c(OCCCN(C)C)c4)sc23)c(F)c1 | < 50 | 50 to 250 | > 10000 | > 10000 |
| Cn1cnc(-c2cc3nccc(Oc4ccc(NC(=O)C5CCN(c6cccnc6)C5=O)cc4F)c3s2)c1 (stereo not drawn) | 250 to 500 | 250 to 500 | 1000 to 5000 | 1000 to 5000 |
| O=C(Nc1ccc(Nc2ccnc3cc(-c4cn(CCN5CCCC5)cn4)sc23)c(F)c1)N1CCN(c2ccccc2)C1=O | < 50 | 250 to 500 | > 10000 | > 10000 |
| COc1ccccc1NC(=O)CC(=O)Nc1ccc(Oc2ccnc3cc(-c4cn(CCN(C)C)cn4)sc23)c(F)c1 | 50 to 250 | < 50 | < 1000 | < 1000 |
| CCn1cnc(-c2cc3nccc(Oc4ccc(NC(=O)CC(=O)N5CCOc6ccccc65)cc4F)c3s2)c1 | < 50 | < 50 | < 1000 | < 1000 |
